Consider six compounds from US20220251071A1, “METHOD TO MAKE SMALL-MOLECULE MURINE DOUBLE MINUTE 2 PROTEIN (MDM2)-DEGRADING COMPOUNDS, COMPOUNDS FORMED THEREBY, AND PHARMACEUTICAL COMPOSITIONS CONTAINING THEM” (Wisconsin Alumni Research Foundation, priority 2019, published 2022).

What is called Dmax is the greatest extent of degradation seen.

Assay [1] has as its system RS4;11 cells. The assay is described as follows: MTT cell viability (anti-proliferation) assay. Type of assay: cell-based, human. Conditions: for IC50: Homo sapiens, RS4-11, MTT assay, 48 h incubation, read-out: IC50, inhibition of growth/proliferation of RS4;11 cells; for anti-proliferation effect, rank in screen / anti-proliferation potency relative to parent MDM2 inhibitor: RS4;11 cells; for anti-proliferation effect, rank in screen: compounds tested at 100 nM; for anti-proliferation potency relative to parent MDM2 inhibitor: 20 vs 1, 32 vs (4S, 5R)-1. The protocol:
The “MTT assay” is a colorimetric assay for assessing cellular metabolic activity. NAD(P)H-dependent cellular oxidoreductase enzymes reflect the number of viable cells present. These enzymes are capable of reducing the tetrazolium dye 3-(4,5-dimethylthiazol-2-yl)-2,5-diphenyltetrazolium bromide (“MTT”) to its insoluble formazan, which has a purple color and whose concentration is then measured spectrophotometrically. The MTT assay is conventional and well known. See, for example, Stockert et al. (2018) “Tetrazolium salts and formazan products in Cell Biology: Viability assessment, fluorescence imaging, and labeling perspectives,” Acta Histochemica 120: 159-167. As used herein, “MTT assay” refers broadly to the MTT assay itself and to the well-known variations of it that use structurally related tetrazolium salts (e.g., XTT, MTS, etc.).
(§1) The human acute leukemia RS4;11 cell line was purchased from American Type Culture Collection (ATCC Accession No. CRL-1873), and cultured in RPMI-1640 media (Corning Incorporated (USA), One Riverfront Plaza, Corning, N.Y. 14831) supplemented with 10% fetal bovine serum (FBS), 1% sodium pyruvate, 1% penicillin/streptomycin, and 10 mM HEPES at 37° C. under a humidified 5% CO2 atmosphere. The experiments were performed by using cells with 8-20 passages after purchasing.
Cells were seeded in a 96-well cell culture plate at a density of 2×10^4 cells with 90 μL cell culture media overnight. The cells were then treated with the indicated dose of compounds, respectively, and incubated at 37° C. under a humidified 5% CO2 atmosphere for 48 h. After the incubation, the cells were treated with 10 μL of MTT solution (5 mg/mL) and incubated with another 4 h, followed by the addition of 100 μL of solubilizing solution. The plate was placed on the shaker for overnight at room temperature until the formazan were entirely dissolved. The plate was scanned at 570 nm and 690 nm. The absorbance was normalized to the DMSO-treated cells, and the IC50 was calculated by non-linear regression analysis using GraphPad Prism 6 software.
On the technique in general: Tetrazolium dyes change colour on reduction, which living cells bring about.

The target in another assay is T1, MDM2 (Homo sapiens, UniProt Q00987).
T1 construct: endogenous in cells; host or cells: RS4;11 (ATCC CRL-1873)
Put plainly: Western blot of MDM2 degradation and downstream proteins. Type of assay: cell-based. Conditions: for MDM2 degradation at 100 nM, 20 compared with 32: identical conditions; for MDM2 degradation (Western blot): RS4;11 leukemia cells, data not shown. The protocol: as §1
Cells were treated with the indicated concentrations of compounds under the indicated time. Cells were collected and lysed with RIPA buffer (Corning) after being washed with cold PBS twice. The supernatant was collected after centrifugation at 16,000×g at 4° C. for 15 min. The protein concentration was measured with BCA (bicinchoninic acid) method. (Smith, P. K., et al. (1985) “Measurement of protein using bicinchoninic acid,” Anal. Biochem. 150(1):76-85.) The protein expressed in the whole cell lysates was identified by Western Blot. A quantity of 40 μg protein per sample was loaded and then separated by SDS-PAGE. Proteins in the gel was transferred to polyvinylidene fluoride (PVDF) membranes, then blocked with 5% non-fat milk, and probed with the primary antibodies at 4° C. overnight. The primary antibodies are as following: MDM2 (D1V2Z) (1:1000), p53 (DO-7) (1:1000), PARP (46D11) (1:1000), Caspase-3 (1:1000), and p21 Waf1/Cip 1(12D1) (1:1000), all of which were purchased from Cell Signaling Technology, Inc., 3 Trask Lane, Danvers, Mass. 01923, along with a-Tubulin (1:1000) and β-Actin (1:1000), which were purchased from R&D Systems, Inc., 614 McKinley Place NE, Minneapolis, Minn. 55413. The membrane was washed with TBS-T 3 times, and incubated with HRP-linked secondary antibodies for 1 h at room temperature, followed by washing with TBS-T. The membrane was incubated with ECL (Bio-rad) for 5 min. The protein band was visualized by using a Bio-Rad Chemi-Doc MP imaging system. The intensity of the band was measured by Image J software.
In general terms: Immunoblotting shows a protein as a band on a membrane.

The test system of assay [2] is p53 transcriptional activity (MDM2, TP53, CDKN1A mRNA). The assay is described as follows: qRT-PCR of mRNA levels of p53 target genes. Type of assay: cell-based, human. Conditions: RS4;11 cells, 6 h; for transcription of p53 targeted genes MDM2 and CDKN1A (p21): (4S,5R)-1 at 1 PM as printed, 32 at 100 nM. As to the method: Total RNA was extracted using GeneJET RNA Purification Kit (Thermo Scientific) and titrated by SYNERGY H1 Hybrid Multi-Mode Reader (BioTek) at 260 nm. 1 μg of total RNA was subjected to reverse transcription using High-Capacity cDNA Reverse Transcription Kit (appliedbiosystems). Quantitative RT-PCR was performed using PowerUp™ SYBR™ Green Master Mix (appliedbiosystems) and the amplification detected in a QuantStudio 7 Flex Real-Time PCR System (ThermoFisher Applied Biosystems).

Assay [3] relates to RS4;11 cells. Put plainly: Flow cytometry apoptosis, Annexin V / PI staining. Type of assay: cell-based, human. Conditions: 24 h, 100 nM or 1 μM. As to the method: Cells were seeded in a 6 cm circular cell culture dish at a density of 5×10^6 cells. After being settled overnight, the cells were treated with the indicated concentrations of compounds for 24 h. The collected cells were double stained with FITC Annexin V and PI according to the manufacturer's protocols. The apoptosis was analyzed using a FITC Annexin V apoptosis detection kit (556547, BD Biosciences, 2350 Qume Drive, San Jose, Calif. 95131).
On the technique in general: A flow cytometer gives signals particle by particle.

Another assay relates to p53. Conditions: xenograft tumor tissues; cited from earlier work.

T1 sequence (Q00987 whole entry): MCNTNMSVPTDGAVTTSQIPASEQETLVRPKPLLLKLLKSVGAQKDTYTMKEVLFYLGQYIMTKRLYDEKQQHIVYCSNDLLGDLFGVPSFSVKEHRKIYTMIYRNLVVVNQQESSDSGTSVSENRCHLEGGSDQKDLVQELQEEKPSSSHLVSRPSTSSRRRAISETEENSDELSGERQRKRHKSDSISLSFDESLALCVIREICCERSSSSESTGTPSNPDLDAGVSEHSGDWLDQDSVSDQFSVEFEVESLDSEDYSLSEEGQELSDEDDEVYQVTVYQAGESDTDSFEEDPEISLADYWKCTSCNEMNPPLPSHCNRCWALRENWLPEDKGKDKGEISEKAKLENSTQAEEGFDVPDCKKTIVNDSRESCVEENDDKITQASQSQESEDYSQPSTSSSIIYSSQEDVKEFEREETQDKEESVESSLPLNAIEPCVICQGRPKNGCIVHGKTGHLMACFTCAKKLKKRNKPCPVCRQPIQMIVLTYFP

`CCOc1cc(C(C)(C)C)ccc1C1=NC(c2ccc(Cl)cc2)C(c2ccc(Cl)cc2)N1C(=O)N1CCN(CC#Cc2cccc3c2CN(C2CCC(=O)NC2=O)C3=O)CC1` (racemic) [Compound 20, 3-(4-(3-(4-(2-(4-(tert-butyl)-2-ethoxyphenyl)-4,5-bis(4-chlorophenyl)-4,5-dihydro-1H-imidazole-1-carbonyl)piperazin-1-yl)prop-1-yn-1-yl)-1-oxoisoindolin-2-yl)piperidine-2,6-dione]: in the assay on RS4;11 cells [1], the IC50 turned out to be 7.2 nM; the “anti-proliferation effect, rank in screen” value is recorded as “most potent inhibitor of RS4;11”; the “anti-proliferation potency relative to parent MDM2 inhibitor” value is listed as ~1,000 fold. For the same compound, the “MDM2 degradation at 100 nM, 20 compared with 32” value at MDM2 (RS4;11 cells) is given as “significant degradation of MDM2 was observed”. The “MDM2 degradation (Western blot)” value on MDM2 is “degrade significant amounts of MDM2”.

With `CCOc1cc(C(C)(C)C)ccc1C1=N[C@@H](c2ccc(Cl)cc2)[C@@H](c2ccc(Cl)cc2)N1C(=O)N1CCNCC1` [(4S, 5R)-1, ((4S,5R)-2-(4-(tert-butyl)-2-ethoxyphenyl)-4,5-bis(4-chlorophenyl)-4,5-dihydro-1H-imidazol-1-yl)(piperazin-1-yl)methanone], in assay [2], the “effect on TP53 mRNA” value was “Neither MDM2 ligand (4S, 5R)-1 nor degrader 32 has any effect on TP53”; the “transcription of p53 targeted genes MDM2 and CDKN1A (p21)” value was “upregulated”.

For the compound `CCOc1cc(C(C)(C)C)ccc1C1=NC(c2ccc(Cl)cc2)C(c2ccc(Cl)cc2)N1C(=O)N1CCN(C(=O)CCC#Cc2cccc3c2CN(C2CCC(=O)NC2=O)C3=O)CC1` (centres unmarked) [Compound 7, 3-(4-(5-(4-(2-(4-(tert-butyl)-2-ethoxyphenyl)-4,5-bis(4-chlorophenyl)-4,5-dihydro-1H-imidazole-1-carbonyl)piperazin-1-yl)-5-oxopent-1-yn-1-yl)-1-oxoisoindolin-2-yl)piperidine-2,6-dione], at MDM2, the “MDM2 degradation (Western blot)” value is given as “degrade significant amounts of MDM2”.

For the compound `C=C1NC(=O)CCC1N1Cc2c(C#CCCCC(=O)NCC(=O)N3CCN(C(=O)N4C(c5ccc(C(C)(C)C)cc5OCC)=NC(c5ccc(Cl)cc5)C4c4ccc(Cl)cc4)CC3)cccc2C1=O` (centres unmarked) [Compound 15, N-(2-(4-(2-(4-(tert-butyl)-2-ethoxyphenyl)-4,5-bis(4-chlorophenyl)-4,5-dihydro-1H-imidazole-1-carbonyl)piperazin-1-yl)-2-oxoethyl)-6-(2-(2-methylene-6-oxopiperidin-3-yl)-1-oxoisoindolin-4-yl)hex-5-ynamide], on MDM2, the “MDM2 degradation (Western blot)” value is listed as “degrade significant amounts of MDM2”.

In the case of `CCOc1cc(C(C)(C)C)ccc1C1=N[C@@H](c2ccc(Cl)cc2)[C@@H](c2ccc(Cl)cc2)N1C(=O)N1CCN(CC#Cc2cccc3c2CN(C2CCC(=O)NC2=O)C3=O)CC1` (stereo partly drawn) [Compound 32, 3-(4-(3-(4-((4S,5R)-2-(4-(tert-butyl)-2-ethoxyphenyl)-4,5-bis(4-chlorophenyl)-4,5-dihydro-1H-imidazole-1-carbonyl)piperazin-1-yl)prop-1-yn-1-yl)-1-oxoisoindolin-2-yl)piperidine-2,6-dione], in the assay on RS4;11 cells [3], the “apoptosis induction, Annexin V-positive cells” value is “A large number of cells were identified in Annexin V-positive quadrants”. In assay [2], the “effect on TP53 mRNA” value was “Neither MDM2 ligand (4S, 5R)-1 nor degrader 32 has any effect on TP53”; the “transcription of p53 targeted genes MDM2 and CDKN1A (p21)” value is “more significant transcriptional upregulation”. For the same compound, in the assay on RS4;11 cells [1], the IC50 came to 3.2 nM; the “anti-proliferation effect, rank in screen” value was “most potent compound as compared to 33 and 34”; the “anti-proliferation potency relative to parent MDM2 inhibitor” value is given as ~1,000 fold. Moreover, the “MDM2 degradation on co-treatment with MDM2 ligand (4S, 5R)-1 or CRBN ligand lenalidomide” value at MDM2 (32 at 100 nM, competitor 5 μM) was “significantly reduced”. Moreover, the “reversibility of MDM2 downregulation after washout” value at MDM2 (12 h treatment, then fresh medium) was “reversible”. Also, the “MDM2 degradation on co-incubation with proteasome inhibitor MG132” value on MDM2 (MG132 5 PM as printed) is reported as “the degradation of MDM2 ceased”. Also, on MDM2 (RS4;11 cells, 100 nM or 1 μM), the “MDM2 and p53 protein levels” value was “MDM2 depleted and p53 was stabilized and upregulated”; the “cleavage of PARP and Caspase-3” value was “cleaved PARP and Caspase-3 were observed”; the p21 protein level entry is on record as “increased level of p21”. The “MDM2 degradation at 100 nM, 20 compared with 32” value on MDM2 (RS4;11 cells) is “superior”. Moreover, the Dmax at 0.1 µM on MDM2 (RS4;11 cells, 24 h, observed at 100 nM, read-out: maximal level of MDM2 degradation (Dmax)) worked out at 90%. Moreover, at MDM2 (RS4;11 cells, 24 h incubation, read-out: concentration at which 50% MDM2 degradation was detected (DC50)), the DC50 is 23 nM. Further, the “time after washout without return of MDM2 to pre-treatment levels” value at MDM2 (RS4;11 cells, after removal of degrader) was more than 48 h. Moreover, at MDM2 (RS4;11 cells, time course), the “time at which MDM2 degradation was first observed” value worked out at 1 h and the “time at which cleaved PARP was observed” value came out at 6 h. In addition, the “MDM2 degradation (Western blot)” value at MDM2 is “degrade significant amounts of MDM2”.

`CC(C)(C)C[C@@H]1N[C@@H](C(=O)N[C@H]2CC[C@H](O)CC2)[C@H](c2cccc(Cl)c2F)[C@]12C(=O)Nc1cc(Cl)ccc12` [SAR405838]: in the assay on p53, the “duration of p53 accumulation after a single dose” value is “only induced a few hours of p53 accumulation”.
